By AUC(0-inf) is commonly meant the area under the concentration-time curve extrapolated to infinity. A low value points to low exposure. By Vd is commonly meant the apparent volume that relates the amount in the body to the concentration in plasma or blood. Low values mean confinement near the circulation, high ones extensive tissue distribution. The half-life is the time needed for the level to fall by half in the phase considered. A higher half-life goes with slow loss. The bioavailability is the share of a dose that reaches the circulation, judged against a reference dose that is usually intravenous. A high value points to much systemic uptake. One may read the Cmax as the peak of the concentration-time curve. As usually defined, the Tmax is the time at which the peak concentration occurs.

Entries after “also recorded” stand apart in the source; their conditions may differ.

Experimental findings from paper PMC10547238, “Discovery of Potent Tetrazole Free Fatty Acid Receptor 2 Antagonists” (Journal of Medicinal Chemistry, 2023) are described below.

Data set [1] can be described thus: Pharmacokinetic study in mice. The class given is in vivo. The note with it: male, BALB/cAnC, mouse, plasma. On the procedure:
The study was performed by Bienta (www.bienta.net). Study design, animal selection, handling, and treatment were all in accordance with the Enamine PK study protocols and Institutional Animal Care and Use Guidelines. Animal treatment and plasma sample preparation were conducted by the Animal Laboratory personnel at Enamine/Bienta. Male BALB/cAnC mice (10–11 weeks old, body weight: 16.0–21.7 g and average body weight across all groups: 19.1 g, SD = 1.2 g) were used in this study. The animals were randomly assigned to the treatment groups before the pharmacokinetic study; all animals were fasted for 4 h before dosing. Intravenous (IV) and peroral (PO) routes of administration were done according to the following; eight time points for each route (3, 7, 15, 30, 60, 120, 240, and 480 min) for the IV route and (5, 10, 15, 30, 60, 120, 240, and 480 min) for the PO route were set for this pharmacokinetic study. Each of the time point treatment group included three animals. There was also one control animal. Compound 16l in the vehicle (DMSO–Cremophor EL–water w/5% mannitol, 1:1:8) was dosed at 10 mg/kg po and 5 mg/kg iv. Dosing volumes of compounds or vehicle were 5 mL/kg. Mice were injected iv with 2,2,2-tribromoethanol at a dose of 150 mg/kg prior to drawing the blood. Blood collection was performed from the orbital sinus in microtainers containing K3EDTA. Animals were sacrificed by cervical dislocation after the blood sample collection. Blood samples were centrifuged for 10 min at 3000 rpm. Before analysis, plasma samples (40 μL) were added 200 μL of a solution with transilast as the internal standard (200 ng/mL in water–methanol mixture 1:9, v/v). After mixing by pipetting and centrifuging for 4 min at 6000 rpm, 0.5 μL of each supernatant was analyzed by HPLC-MS/MS on an API 3000 PE instrument.

The test system of a further data set is human neutrophils. Kind of data set: Human neutrophil migration (Transwell). The class given is cell-based. On the procedure:
Human peripheral blood neutrophils were isolated from healthy volunteer buffy coats. Initially, the majority of red blood cells were sedimented using 2% w/v dextran sulfate in a 0.9% NaCl solution for 15 min. Next, the upper phase was centrifuged for 10 min at 200g and the supernatant was discarded. The pellet was resuspended in 0.9% NaCl solution, and neutrophils were separated from here using Lymphoprep (STEMCELL Technologies #07851) and density-gradient centrifugation (400g for 30 min). Then, the remaining red blood cells were subjected to hypotonic lysis by addition of 10 mL of sterile water followed by addition of 10 mL of 1.8% NaCl solution. Cell count and viability were determined using trypan blue and a Countess cell counter. […]
Freshly isolated human peripheral neutrophils were used in migration assays using the Boyden style Corning HTS Transwell 96 well system with 3 μm pores (Corning #3385). […] Finally, the number of cells that had migrated to the bottom chamber was assessed using the ATPLite Luminescence assay system (PerkinElmer #6016943) according to the manufacturer’s instructions. Luminescence was measured on an LUMIstar Omega microplate reader (PerkinElmer). Experiments were performed in triplicate and analyzed using GraphPad Prism (version 9). Fold response was calculated as the relative migration of samples compared to the vehicle control.

In data set [1] (iv admin 5 mg/kg), `COc1cccc(CC(=O)N[C@@H](Cc2ccc(C(F)(F)F)cc2)Cc2nnn[nH]2)c1` [Compound 16l, (S)-N-(1-(1H-Tetrazol-5-yl)-3-(4-(trifluoromethyl)phenyl)propan-2-yl)-2-(3-methoxyphenyl)acetamide] gave an area under the curve AUC(0-inf) of 7350 ng·h/mL, a Vd of 0.4 L/kg and a half-life of 24 min. The clearance in data set [1] (iv admin 5 mg/kg, read-out: CLtotal) was found to be 11 mL/min/kg. The bioavailability in data set [1] (po 10 mg/kg vs iv 5 mg/kg) came to 44%. Moreover, in data set [1] (po admin 10 mg/kg), the AUC(0-inf) is 6480 ng·h/mL, the Cmax is 6240 ng/mL and the Tmax was 30 min. Also, the “effect on neutrophil migration induced by fMLP” value in the data set on human neutrophils (fMLP-induced) is “did not exhibit any effect”. Also, the “inhibition of propionate-induced neutrophil migration” value in the data set with human neutrophils (propionate (C3) 1 mM) is given as “completely inhibit; also recorded: fully inhibit migration; also recorded: complete inhibition”.
